Test results reported in patent US20250091983A1, “CYCLOPENTANE AND CYCLOHEXANE VARIANTS OF 6-PHENYLHEXANAMIDE MITOFUSIN ACTIVATORS AND METHODS FOR USE THEREOF” (MITOCHONDRIA EMOTION, INC., priority 2021, published 2025).

Tests used:
mitofusin = assay: Dose-response of mitofusin agonist fusogenicity (mitochondrial aspect ratio); assay type: cell-based, mouse; conditions: Mfn1-KO or Mfn2-KO MEFs; mitochondrial aspect ratio indexed to maximal response of Compound 22; overnight
Protocol: Wild-type MEFs were prepared from E10.5 c57/bl6 mouse embryos. SV-40 T antigen-immortalized MFN1 null (CRL-2992), MFN2 null (CRL-2993) and MFN1/MFN2 double null MEFs (CRL-2994) were purchased from ATCC.
Mitochondria were then stained with MitoTracker Orange (200 nM; M7510; Invitrogen, Carlsbad, CA, USA). Nuclei were stained with Hoescht ([…]; Invitrogen, Thermo Fisher Scientific Cat: #1-3570). […] Response curves were interpolated using the sigmoidal model using Prism 8 software.

[1] = Liver microsome stability, human; assay type: in vitro ADME; conditions: 1 uM compound, human liver microsomes 0.5 mg/ml; read-out: Liver Microsomes (t1/2, minutes) Human
Protocol: (§1) In vitro pharmacokinetic analyses were performed in duplicate using standard methods by WuXi AppTec Co. Ltd. (Shanghai, China). Plasma protein binding was measured by equilibrium dialysis; % bound=(1−[free compound in dialysate]/[total compound in retentate])×100. […] Liver microsome stability of 1 uM compounds in liver microsomes (0.5 mg/ml) after 0, 5, 10, 20, 30, 60 min. incubation was assessed by LC/MS/MS of reaction extracts.

[2] = Liver microsome stability, mouse; assay type: in vitro ADME; conditions: 1 uM compound, mouse liver microsomes 0.5 mg/ml; read-out: Liver Microsomes (t1/2, minutes) Mouse
Protocol: as §1

[3] = Plasma protein binding by equilibrium dialysis, human; assay type: in vitro ADME; conditions: read-out: Plasma Protein Binding (Bound %) Human (converted)
Protocol: as §1

[4] = Plasma protein binding by equilibrium dialysis, mouse; assay type: in vitro ADME; conditions: read-out: Plasma Protein Binding (Bound %) Mouse (converted)
Protocol: as §1

Row | EC50 (mitofusin) [nM] | half-life at 1 uM [1] [min] | half-life at 1 uM [2] [min] | fraction unbound [3] | fraction unbound [4] | SMILES
1 | 6.3 | 23.7 | 112 | – | – | O=C(CCCCCc1ccccc1)NC1CCOCC1 [23 (Comp.)]
2 | 15.3 | – | – | 0.007 | 0.012 | O=C(N[C@H]1CC[C@H](O)CC1)C1CCC(CCCc2ccccc2)C1 (stereo partly drawn) [15 (Exp.), N-(4-hydroxycyclohexyl)-3-(3-phenylpropyl)cyclopentane-1-carboxamide]
